Like-named read-outs stand apart in the source and are kept apart here.

A word on the half-life: it is the time needed for the level to fall by half in the phase considered.

The nature of this data set: Hydrolysis of pro-drugs at biologically relevant pHs (half-lives). In kind it is physicochemical. An excerpt: The behaviors of the eight pro-drugs synthesized were then validated by hydrolysis at various biologically relevant pHs: 4.3, 5.0, 6.0 for the pHs that can be found in acidic vesicles at various maturation degrees, and at pH 7.3 for the physiological and neutral pH. As one can see, the R substituent on the phenyl group is highly important for the modulation of the kinetics of the release. In the case of the two hydroxamic acid pro-drugs, the best system appeared to be the di-p-toluyl one (R=Me), with a half-life of 10–20 h at the moderately acidic pH of lysosomes. Other solutions were too stable or rapidly hydrolyzed. In the case of the benzamide drug, the best system was the diphenyl one (R=H). When a group with an electron donating effect was present on the phenyl rings, the benzamide pro-drugs were decomposed very quickly in a time range that limit the accurateness of the kinetic measurements.
The synthesis of pro-drugs (Scheme 1), the determination of the hydrolysis rates of pro-drugs in mildly acidic pH [25, 26], the pro-drug-functionalized macromonomer-PEO-CI994 (17), the pro-drug-functionalized macro-monomer-PEO-SAHA (16), the pro-drug-functionalized macro-monomer-PEO-NODH (15), and the synthesis of the pro-drug functionalized nanoparticles (NPs) (Figure 1), and the biological tests are developed in the supporting information part.

[1] abbreviates: buffer, pH 4.3, read-out: Half-life (converted).
Setting [2] is: buffer, pH 7.3, read-out: Half-life (converted).
Setting [3] is: buffer, pH 6.0, read-out: Half-life (converted).
Setting [4] is: buffer, pH 5.0, read-out: Half-life (converted).

`C#CCOCCOCCOCCOCCn1cc(C(ONC(=O)CCCCCCC(=O)Nc2ccccc2)(c2ccc(C)cc2)c2ccc(C)cc2)nn1` [Compound 6b]: the half-life is, setting by setting: under setting [1], 20 h; under setting [2], 96 h; under setting [3], 80 h.
Regarding `C#CCOCCOCCOCCOCCn1cc(C(ONC(=O)CCCCCCC(=O)Nc2ccccc2)(c2ccc(OC)cc2)c2ccc(OC)cc2)nn1` [Compound 6c], the half-life was 0.5 h under setting [1], 0.567 h under setting [2], 1.33 h under setting [4] and 1.8 h under setting [3].
Take `C#CCOCCOCCOCCOCCn1cc(C(ONC(=O)/C=C/C(C)=C/C2(C)Oc3cc(N(C)C)ccc3C2=O)(c2ccccc2)c2ccccc2)nn1` (stereo not shown) [Compound 8a]: the half-life result runs as follows: (pH 4.3, result in words) “stable”; (pH 5.0, result in words) “stable”; (pH 7.3, result in words) “Stable”.
Turning to `C#CCOCCOCCOCCOCCn1cc(C(Nc2ccccc2NC(=O)c2ccc(NC(C)=O)cc2)(c2ccc(OC)cc2)c2ccc(OC)cc2)nn1` [Compound 7c], the half-life reads like this: under setting [1], less than 0.0167 h; under setting [4], less than 0.0833 h; under setting [3], less than 0.0833 h.
`C#CCOCCOCCOCCOCCn1cc(C(ONC(=O)CCCCCCC(=O)Nc2ccccc2)(c2ccccc2)c2ccccc2)nn1` [Compound 6a]: the half-life result is, setting by setting: (pH 4.3, result in words) “Stable”; (pH 5.0, result in words) “Stable”; (pH 6.0, result in words) “Stable”; (pH 7.3, result in words) “Stable”.
As for `C#CCOCCOCCOCCOCCn1cc(C(Nc2ccccc2NC(=O)c2ccc(NC(C)=O)cc2)(c2ccc(C)cc2)c2ccc(C)cc2)nn1` [Compound 7b], the half-life is less than 0.0167 h under setting [1], 0.2 h under setting [4] and 0.167 h under setting [3].
Consider `C#CCOCCOCCOCCOCCn1cc(C(Nc2ccccc2NC(=O)c2ccc(NC(C)=O)cc2)(c2ccccc2)c2ccccc2)nn1` [Compound 7a], for which the half-life is, setting by setting: under setting [4], 6.67 h; under setting [3], 48 h.

The values above are taken from paper PMC6406258, “The ROMP: A Powerful Approach to Synthesize Novel pH-Sensitive Nanoparticles for Tumor Therapy” (Biomolecules, 2019).
